Measurements: patent publication US20160271086A1, “METHODS AND COMPOSITIONS FOR INDUCING REGULATORY T-CELL GENERATION” (SLOAN-KETTERING INSTITUTE FOR CANCER RESEARCH, priority 2013, published 2016)
Entries after “also recorded” stand apart in the source; their conditions may differ.

Columns and labels:
[1] = tested on: Foxp3+ Treg cells; assay: SCFA in drinking water to AVNM-treated mice, flow cytometric analysis of Foxp3+ Treg cell subsets; assay type: in vivo; details: for colonic Treg cells (accumulation of Treg cells in the colon): SCFA in drinking water; for Treg cell subsets in the spleen: drinking water, AVNM-treated CNS1-sufficient mice
Text: Fox[…] (CNS1 knockout), Foxp3GFP, Foxp3Thy1.1 and Gpr109a-/- mice were used in the experiments as previously described (Zheng. Y. et al. Nature, 2010, 463, 808-12; Fontenot, J. D. et al. Immunity, 2005, 22, 329-41; Kim, J. M., et al. Nat Immunol, 2007, 8, 191-7). Male C57BL/6 (B6) mice were purchased from the Jackson Laboratory and groups of 5 co-housed mice were randomly assigned to treatment vs. control groups after confirmation that age and weight were in accordance between groups. Male mice were used for all experiments. All strains were maintained in the Sloan-Kettering Institute animal facility in accordance with institutional guidelines. Mice were sacrificed by CO2 asphyxiation then blindly processed for tissue harvest thereafter. For antibiotic treatment, mice at 5-6 weeks of age were treated with 1 g L-1 metronidazole (Sigma-Aldrich), 0.5 g L-1 vancomycin (Hospira), 1 g L-1 ampicillin (Sigma-Aldrich) and 1 g L-1 kanamycin (Fisher Scientific) dissolved in drinking water. […] Butyrate was administered to mice after prior treatment with antibiotics for at least 1 week. For in vitro experiments, CD4+ T cells and CD11c+ dendritic cells were enriched using mouse CD4 (L3T4, Invitrogen) and mouse CD11c (N418, BioLegend) antibodies, respectively, that were biotinylated for use with streptavidin-Dynabeads (Invitrogen). Enriched cells were then sorted on a FACSAria II cell sorter (BD Biosciences) for in vitro assays. Intracellular staining for IL-17, IFN-γ, IL-4, IL-13 and Foxp3 was performed using the Foxp3 staining kit (eBiosciences). Cytokine staining was performed after re-stimulation with CD3 antibody and CD28 antibody (5 μg ml-1 each) in the presence of Golgi-plug (BD Biosciences) for 5 hours.

[2] = tested on: Flt3L-elicited DC; assay: Foxp3 induction by DC pre-treated with SCFA or TSA for 6 h, washed, co-cultured with naïve CD4+ T cells; assay type: cell-based, mouse; details: DC pre-treated 6 h, then agent removed
Procedure: DC were expanded in vivo by subcutaneous injection of B16 melanoma cells secreting FLT3-ligand into the left hind flank of mice as indicated. Once tumors were visible, spleens from injected animals were dissociated in RPMI 1640 medium containing 1.67 U mL-1 liberase TL (Roche) and 50 μg mL-1 DNAse I (Roche) for 20 min at 37° C. with shaking EDTA was then added at a final concentration of 5 mM to stop digestion and the resulting homogenate was processed for CD11c+ cell isolation using the MACS mouse CD11c (N418) purification kit (Miltenyi Biotec).
(§1) In vitro Foxp3 induction assays were performed by co-culturing DC with 5.5×10^4 CD4+CD44loCD62LhiCD25-naïve T cells in the presence of 1 μg ml-1 of CD3 antibody, 1 ng mL-1 TGF-β, and 100 U ml-1 IL-2, in 96-well flat-bottom plates for 4 d. For Foxp3 induction in the presence of butyrate- or TSA-pretreated DC, TGF-β was used at 0.1 ng mL-1 final concentration. In vitro induction assays in the absence of DC were performed by incubating 5.5×10^4 naïve CD4+ T cells with 1 ng mL-1 TGF-β, 100 U ml-1 IL-2, and a 1:1 cell-to-bead ratio of CD3/CD28 T activator Dynabeads (Invitrogen). For in vitro suppression assays, 4×10^4 naïve CD4+ T cells were FACS-sorted from B6 mice and cultured with graded numbers of CD4+Foxp3+ Treg cells FACS-sorted from Foxp3GFP mice treated with antibiotics and with or without butyrate, in the presence of […] irradiated T cell-depleted splenocytes and 1 μg ml-1 CD3 antibody in a 96-well round-bottom plate for 80 h. Proliferation of T cells was assessed by [3H]-thymidine incorporation during the final 8 h of culture.

[3] = tested on: naïve CD4+ T cells; assay: In vitro Foxp3 induction assay: naïve CD4+ T cells co-cultured with DC, CD3 antibody, TGF-β, IL-2; assay type: cell-based, mouse; details: purified SCFA
Procedure: For in vitro experiments, CD4+ T cells and CD11c+ dendritic cells were enriched using mouse CD4 (L3T4, Invitrogen) and mouse CD11c (N418, BioLegend) antibodies, respectively, that were biotinylated for use with streptavidin-Dynabeads (Invitrogen). Enriched cells were then sorted on a FACSAria II cell sorter (BD Biosciences) for in vitro assays. Intracellular staining for IL-17, IFN-γ, IL-4, IL-13 and Foxp3 was performed using the Foxp3 staining kit (eBiosciences). Cytokine staining was performed after re-stimulation with CD3 antibody and CD28 antibody (5 μg ml-1 each) in the presence of Golgi-plug (BD Biosciences) for 5 hours. DC were expanded in vivo by subcutaneous injection of B16 melanoma cells secreting FLT3-ligand into the left hind flank of mice as indicated. Once tumors were visible, spleens from injected animals were dissociated in RPMI 1640 medium containing 1.67 U mL-1 liberase TL (Roche) and 50 μg mL-1 DNAse I (Roche) for 20 min at 37° C. with shaking EDTA was then added at a final concentration of 5 mM to stop digestion and the resulting homogenate was processed for CD11c+ cell isolation using the MACS mouse CD11c (N418) purification kit (Miltenyi Biotec). In vitro Foxp3 induction assays were performed by co-culturing DC with 5.5×10^4 CD4+CD44loCD62LhiCD25-naïve T cells in the presence of 1 μg ml-1 of CD3 antibody, 1 ng mL-1 TGF-β, and 100 U ml-1 IL-2, in 96-well flat-bottom plates for 4 d. For Foxp3 induction in the presence of butyrate- or TSA-pretreated DC, TGF-β was used at 0.1 ng mL-1 final concentration. In vitro induction assays in the absence of DC were performed by incubating 5.5×10^4 naïve CD4+ T cells with 1 ng mL-1 TGF-β, 100 U ml-1 IL-2, and a 1:1 cell-to-bead ratio of CD3/CD28 T activator Dynabeads (Invitrogen). […] Proliferation of T cells was assessed by [3H]-thymidine incorporation during the final 8 h of culture.

[4] = molecular target: T1, GPR43 (Mus musculus, UniProt Q8VCK6); details: Smith et al. Science 2013; cited from earlier work
T1 sequence (Q8VCK6 1-330): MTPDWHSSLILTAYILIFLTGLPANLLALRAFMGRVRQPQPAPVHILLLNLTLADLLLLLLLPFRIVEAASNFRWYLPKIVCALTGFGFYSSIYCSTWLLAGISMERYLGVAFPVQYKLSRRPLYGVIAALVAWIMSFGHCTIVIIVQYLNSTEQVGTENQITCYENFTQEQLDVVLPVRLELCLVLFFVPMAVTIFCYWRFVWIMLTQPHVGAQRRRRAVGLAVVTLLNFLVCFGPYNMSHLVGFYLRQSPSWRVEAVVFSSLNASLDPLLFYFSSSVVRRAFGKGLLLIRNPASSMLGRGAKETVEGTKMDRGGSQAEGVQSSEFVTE

[5] = LC-MS analysis of butyrate in serum; assay type: in vivo; details: AVNM-treated mice given butyrate in drinking water vs unperturbed SPF mice
Text: Foxp3ΔCNS1 (CNS1 knockout), Foxp3GFP, Foxp3Thy1.1 and Gpr109a−/− mice were used in the experiments as previously described (Zheng. Y. et al. Nature, 2010, 463, 808-12; Fontenot, J. D. et al. Immunity, 2005, 22, 329-41; Kim, J. M., et al. Nat Immunol, 2007, 8, 191-7). Male C57BL/6 (B6) mice were purchased from the Jackson Laboratory and groups of 5 co-housed mice were randomly assigned to treatment vs. control groups after confirmation that age and weight were in accordance between groups. Male mice were used for all experiments. All strains were maintained in the Sloan-Kettering Institute animal facility in accordance with institutional guidelines. Mice were sacrificed by CO2 asphyxiation then blindly processed for tissue harvest thereafter. For antibiotic treatment, mice at 5-6 weeks of age were treated with 1 g L-1 metronidazole (Sigma-Aldrich), 0.5 g L-1 vancomycin (Hospira), 1 g L-1 ampicillin (Sigma-Aldrich) and 1 g L-1 kanamycin (Fisher Scientific) dissolved in drinking water. For butyrate, acetate and propionate administration, each SCFA was added to drinking water containing antibiotics (as described above) at a final concentration of 36 mM and pH-adjusted, if needed, to match that of antibiotic-only water. Butyrate was administered to mice after prior treatment with antibiotics for at least 1 week. […]

[6] = Butyrate levels in fecal pellets after butyrate in drinking water; assay type: in vivo; details: AVNM-treated mice given butyrate via drinking water
Procedure: Stool samples were collected directly into sterile tubes from live mice and snap-frozen before preparation of material for SCFA quantification by HPLC or LC-MS (see corresponding section for further sample processing).
HPLC analysis was performed for analysis of derivatized stool extracts as previously described (Torii, T. et al. Ann. Clin. Biochem, 2010, 47, 447-452). Briefly, flash-frozen stool samples were extracted with 70% ethanol and brought to a final concentration of 0.1 μg μL-1. Debris was removed by centrifugation and 300 μL of supernatant was transferred to a new tube and combined with 50 μL of internal standard (2-ethylbutyric acid, 200 mM in 50% aqueous methanol), 300 μL of dehydrated pyridine 3% v/v (Wako) in ethanol, 300 μL of 250 mM N-(3-dimethlaminopropyl)-N′-ethylcarbodiimide hydrochloride (Sigma-Aldrich) in ethanol, and 300 μL of 20 mM 2-nitrophenylhydrazine hydrochloride (Tokyo Chemical) in ethanol. Samples were incubated at 60° C. for 20 min and 200 μL of potassium hydroxide 15% w/v dissolved 80/20 in methanol was added to stop the derivatization reaction. […] Derivatized SCFA were resuspended in 100 μL of mobile phase (below) and 20 μL was chromatographed on a Shimadzu HPLC system equipped with a Vydac 2.1×30 mm 300 A C18 column run at 200 μL min-1 in methanol/acetonitrile/TFA (30%/16%/0.1% v/v) and monitored for absorbance at 400 nm.

[7] = tested on: Foxp3 promoter and CNS1 enhancer; assay: H3K27Ac ChIP-qPCR at the Foxp3 locus; assay type: cell-based, mouse; details: 3 days, CD3/CD28 beads and TGF-β
Procedure: H3K27Ac ChIP-qPCR was performed as previously described (Samstein, R. M. et al. Cell, 2012, 151, 153-66). Briefly, fixed cells were lysed and mono- and poly-nucleosomes were obtained by partial digestion with micrococcal nuclease (12,000 U mL-1) in 1 min at 37° C. EDTA was added to a final concentration of 50 mM to stop the reaction, and digested nuclei were resuspended in nuclear lysis buffer with 1% SDS. After sonication, 1 ug H3K27Ac-specific antibody (Abcam, ab4729) was used to precipitate H3K27Ac-bound chromatin. Washing and de-crosslinking was performed as described (Samstein, R. M. et al. Cell, 2012, 151, 153-66).

[8] = tested on: Flt3L-elicited CD11c+ dendritic cells; assay: DC viability by live/dead staining and flow cytometry; assay type: cell-based, mouse; details: butyrate pretreatment 6 h
[9] = tested on: naïve CD4+ T cells; assay: In vitro Foxp3 induction in the absence of DC (CD3/CD28 antibody-coated beads, TGF-β); assay type: cell-based, mouse; details: purified naive CD4+ T cells, CD3 and CD28 antibody-coated beads
Procedure: as §1

| SMILES | colonic Treg cells (accumulation of Treg cells in the colon) ([1]; AVNM-treated mice) | Treg cell subsets in the spleen [1] | ability of pre-treated DCs to induce Foxp3 expression in naïve CD4+ T cells [2] | TGF-β-dependent generation of Foxp3+ cells in vitro [3] | accumulation of Treg cells in the colon by activating GPR43 [4] | butyrate serum levels [5] | non-lymphoid tissue histology ([1]; butyrate in drinking water, AVNM-treated mice) | levels of butyrate in fecal pellets [6] | increase in H3K27-Ac occupancy ([7]; Foxp3+ cells) | increase in H3K27-Ac at the Foxp3 promoter and CNS1 enhancer ([7]; Foxp3− cells) | DC viability [8] | increase in numbers of Foxp3+ cells in DC-free cultures [9] |
| --- | --- | --- | --- | --- | --- | --- | --- | --- | --- | --- | --- | --- |
| CC(=O)O [acetate] | promoted accumulation | did not increase | not | not | promote accumulation |  |  |  |  |  |  |  |
| CC(C)CC(=O)O [isovalerate] |  |  |  | augmented |  |  |  |  |  |  |  |  |
| CCC(=O)O [propionate] | promoted accumulation | increased | to a lesser extent | augmented | promote accumulation |  |  |  |  |  |  |  |
| CCCC(=O)O [butyrate] |  |  |  |  |  | comparable to those found in unperturbed SPF mice | remained unchanged | not reconstituted | ~30% | 3 fold | no detrimental effect; also recorded: maintain | < 1.5 fold |
